Source: the Kinase Knowledgebase extract (Sharma et al. 2016)

Target: PIK3CA (human) (UniProt P42336)
Test: Assessment of PIK3CA Kinase Activity

PIK3CA (human), sequence (P42336 whole entry, looked up): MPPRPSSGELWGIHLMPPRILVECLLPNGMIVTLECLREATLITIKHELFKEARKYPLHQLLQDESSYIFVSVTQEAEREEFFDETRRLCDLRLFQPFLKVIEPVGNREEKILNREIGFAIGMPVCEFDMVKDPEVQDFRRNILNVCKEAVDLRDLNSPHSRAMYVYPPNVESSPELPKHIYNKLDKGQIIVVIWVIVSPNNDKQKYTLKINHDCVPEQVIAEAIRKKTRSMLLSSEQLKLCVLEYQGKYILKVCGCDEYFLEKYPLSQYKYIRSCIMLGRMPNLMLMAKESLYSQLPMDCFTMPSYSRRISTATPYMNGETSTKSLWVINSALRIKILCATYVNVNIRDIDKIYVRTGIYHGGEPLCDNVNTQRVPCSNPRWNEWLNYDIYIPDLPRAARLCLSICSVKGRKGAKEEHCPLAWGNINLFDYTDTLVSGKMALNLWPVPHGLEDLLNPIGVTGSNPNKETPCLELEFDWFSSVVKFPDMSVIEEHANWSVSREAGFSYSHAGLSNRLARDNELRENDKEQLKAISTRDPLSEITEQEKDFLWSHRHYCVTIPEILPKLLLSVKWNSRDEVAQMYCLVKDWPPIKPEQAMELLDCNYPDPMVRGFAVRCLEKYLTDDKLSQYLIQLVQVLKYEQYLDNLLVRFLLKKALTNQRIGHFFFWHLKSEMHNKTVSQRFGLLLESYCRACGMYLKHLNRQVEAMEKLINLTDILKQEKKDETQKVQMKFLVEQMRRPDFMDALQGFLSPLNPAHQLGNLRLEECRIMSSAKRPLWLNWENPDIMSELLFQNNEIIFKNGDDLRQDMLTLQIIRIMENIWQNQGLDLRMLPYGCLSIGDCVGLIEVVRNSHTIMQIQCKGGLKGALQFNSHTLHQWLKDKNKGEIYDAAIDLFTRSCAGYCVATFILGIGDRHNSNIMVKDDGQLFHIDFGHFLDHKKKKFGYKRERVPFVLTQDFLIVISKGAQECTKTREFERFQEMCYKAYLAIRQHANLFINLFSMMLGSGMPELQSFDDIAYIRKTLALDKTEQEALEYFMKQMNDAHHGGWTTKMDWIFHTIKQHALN

| Compound | IC50 [nM] |
| --- | --- |
| CN(Cc1cc2nc(-c3ccc(Cl)cc3)nc(N3CCOCC3)c2s1)c1ncc(C(=O)NO)cn1 | > 10000 |
| CS(=O)(=O)N1CCN(Cc2cc3nc(-c4ccc(OCCCCC(=O)NO)cc4)nc(N4CCOCC4)c3s2)CC1 | 100 to 1000 |
| CN(Cc1cc2nc(-c3ccc(OCc4ccccc4)nc3)nc(N3CCOCC3)c2s1)c1ncc(C(=O)NO)cn1 | > 10000 |
| CN(Cc1cc2nc(-c3ccc(C#N)cc3)nc(N3CCOCC3)c2s1)c1ncc(C(=O)NO)cn1 | > 10000 |
| CS(=O)(=O)N1CCN(Cc2cc3nc(-c4cccc5[nH]ncc45)nc(NCCCCC(=O)NO)c3s2)CC1 | > 10000 |
| CN(Cc1cc2nc(-c3cccc(NS(C)(=O)=O)c3)nc(N3CCOCC3)c2s1)c1ncc(C(=O)NO)cn1 | > 10000 |
| CN(C)CCOc1ccc(-c2nc(N3CCOCC3)c3sc(CN(C)c4ncc(C(=O)NO)cn4)cc3n2)cn1 | > 10000 |
| CC(=O)c1cc(-c2nc(N3CCOCC3)c3sc(CN(C)c4ncc(C(=O)NO)cn4)cc3n2)ccc1N | 100 to 1000 |
| Nc1ccc(-c2nc(N3CCOCC3)c3sc(C(=O)NCC4CCN(c5ncc(C(=O)NO)cn5)CC4)cc3n2)cc1 | 100 to 1000 |
| CS(=O)(=O)N1CCN(Cc2cc3nc(-c4cccc5[nH]ncc45)nc(N4CCN(CCCCCCC(=O)NO)CC4)c3s2)CC1 | > 10000 |
| CNc1ccc(-c2nc(N3CCOCC3)c3sc(C(C)(C)N(C)c4ncc(C(=O)NO)cn4)cc3n2)cn1 | 100 to 1000 |
| CN(Cc1cc2nc(-c3ccccc3)nc(N3CCOCC3)c2s1)c1ncc(C(=O)NO)cn1 | > 10000 |
| CCCc1nc2cc(C=CC(=O)NO)ccc2n1CCN(C)Cc1cc2nc(-c3ccc(NC)nc3)nc(N3CCOCC3)c2s1 | 100 to 1000 |
| CN(Cc1cc2nc(-c3cccc4[nH]ncc34)nc(N3CCN(CCO)CC3)c2s1)c1ncc(C(=O)NO)cn1 | > 10000 |
| CN(Cc1cc2nc(-c3ccc(N)c(Cl)c3)nc(N3CCOCC3)c2s1)c1ncc(C(=O)NO)cn1 | 100 to 1000 |
| Nc1ccc(-c2nc(N3CCOCC3)c3sc(S(=O)(=O)NCC4CCN(c5ncc(C(=O)NO)cn5)CC4)cc3n2)cc1 | 100 to 1000 |
| CC(O)c1ccc(F)c(-c2nc(N3CCOCC3)c3sc(CN(C)c4ncc(C(=O)NO)cn4)cc3n2)c1 (centres undefined) | 100 to 1000 |
| CN(Cc1cc2nc(-c3ccc(N)c(C#N)c3)nc(N3CCOCC3)c2s1)c1ncc(C(=O)NO)cn1 | 100 to 1000 |
| CS(=O)(=O)N1CCN(Cc2cc3nc(-c4cccc5c4cnn5CCCCC(=O)NO)nc(N4CCOCC4)c3s2)CC1 | > 10000 |
| Cc1ncc(-c2nc(N3CCOCC3)c3sc(CN(CCO)c4ncc(C(=O)NO)cn4)cc3n2)s1 | 100 to 1000 |
| CN(Cc1cc2nc(-c3cccc(S(N)(=O)=O)c3)nc(N3CCOCC3)c2s1)c1ncc(C(=O)NO)cn1 | 100 to 1000 |
| CN(Cc1cc2nc(-c3ccc(S(C)(=O)=O)cc3)nc(N3CCOCC3)c2s1)c1ncc(C(=O)NO)cn1 | > 10000 |
| CN(Cc1cc2nc(-c3cnn(C)c3)nc(N3CCOCC3)c2s1)c1ncc(C(=O)NO)cn1 | 100 to 1000 |
| CC(=O)c1cccc(-c2nc(N3CCOCC3)c3sc(CN(C)c4ncc(C(=O)NO)cn4)cc3n2)c1 | 100 to 1000 |

| Compound | IC50 [nM] |
| --- | --- |
| Cc1ncc(-c2nc(N3CCOCC3)c3sc(CN(C)c4ncc(C(=O)NO)cn4)cc3n2)s1 | 100 to 1000 |
| CN(Cc1cc2nc(-c3ccc(N4CCCC4)cc3)nc(N3CCOCC3)c2s1)c1ncc(C(=O)NO)cn1 | > 10000 |
| CS(=O)(=O)N1CCN(Cc2cc3nc(-c4ccc(OCCCCCC(=O)NO)cc4)nc(N4CCOCC4)c3s2)CC1 | 100 to 1000 |
| CN(Cc1cc2nc(-c3cc(F)c(N)c(F)c3)nc(N3CCOCC3)c2s1)c1ncc(C(=O)NO)cn1 | 100 to 1000 |
| CN(Cc1cc2nc(-c3cccc4[nH]c(=O)[nH]c34)nc(N3CCOCC3)c2s1)c1ncc(C(=O)NO)cn1 | 100 to 1000 |
| CS(=O)(=O)N1CCN(Cc2cc3nc(-c4cccc5[nH]ncc45)nc(NCCCCCC(=O)NO)c3s2)CC1 | > 10000 |
| CC(=O)NCc1ccc(-c2nc(N3CCOCC3)c3sc(CN(C)c4ncc(C(=O)NO)cn4)cc3n2)cc1 | > 10000 |
| CS(=O)(=O)N1CCN(Cc2cc3nc(-c4cccc5[nH]ncc45)nc(N4CCN(CCCCCC(=O)NO)CC4)c3s2)CC1 | > 10000 |
| CN(Cc1cc2nc(-c3cccc4c3CCN4)nc(N3CCOCC3)c2s1)c1ncc(C(=O)NO)cn1 | > 10000 |
| CS(=O)(=O)N1CCN(Cc2cc3nc(-c4cccc5[nH]ncc45)nc(NCCCCCCC(=O)NO)c3s2)CC1 | > 10000 |
| CN1CCN(c2nc(-c3cccc4[nH]ncc34)nc3cc(CN(C)c4ncc(C(=O)NO)cn4)sc23)CC1 | > 10000 |
| Cn1cc(-c2nc(N3CCOCC3)c3sc(CN(CCO)c4ncc(C(=O)NO)cn4)cc3n2)cn1 | 100 to 1000 |
| CC(C)C(=O)Nc1ccc(-c2nc(N3CCOCC3)c3sc(CN(C)c4ncc(C(=O)NO)cn4)cc3n2)cc1 | 100 to 1000 |
| CS(=O)(=O)N1CCN(Cc2cc3nc(-c4cccc5c4cnn5CCCCCC(=O)NO)nc(N4CCOCC4)c3s2)CC1 | > 10000 |
| Nc1ccc(-c2nc(N3CCOCC3)c3sc(CNCc4ccc(C(=O)NO)cc4)cc3n2)cc1 | > 10000 |
| CC(C)c1ccc(-c2nc(N3CCOCC3)c3sc(CN(C)c4ncc(C(=O)NO)cn4)cc3n2)cc1 | > 10000 |
| CS(=O)(=O)N1CCN(Cc2cc3nc(-c4cccc5[nH]ncc45)nc(N4CCN(CCCCC(=O)NO)CC4)c3s2)CC1 | > 10000 |
| CCNc1ccc(-c2nc(N3CCOCC3)c3sc(CN(C)c4ncc(C(=O)NO)cn4)cc3n2)cc1 | > 10000 |
| CN(C)c1ccc(-c2nc(N3CCOCC3)c3sc(CN(C)c4ncc(C(=O)NO)cn4)cc3n2)cc1 | > 10000 |
| CN(Cc1cc2nc(-c3cnc(OCc4ccccc4)nc3)nc(N3CCOCC3)c2s1)c1ncc(C(=O)NO)cn1 | 100 to 1000 |
| COc1ccc(-c2nc(N3CCOCC3)c3sc(CN(C)c4ncc(C(=O)NO)cn4)cc3n2)cc1 | > 10000 |
| CC(=NO)c1ccc(F)c(-c2nc(N3CCOCC3)c3sc(CN(C)c4ncc(C(=O)NO)cn4)cc3n2)c1 | 100 to 1000 |
| O=C(NO)c1ccc2c(ccn2Cc2cc3nc(-c4cccc5[nH]ncc45)nc(N4CCOCC4)c3s2)c1 | > 10000 |
| CN(Cc1cc2nc(-c3cccc(S(=O)(=O)CCO)c3)nc(N3CCOCC3)c2s1)c1ncc(C(=O)NO)cn1 | > 10000 |

Continued, values first:

| IC50 [nM] | Compound |
| --- | --- |
| 100 to 1000 | Cn1c(CNCc2cc3nc(-c4ccc(N)cc4)nc(N4CCOCC4)c3s2)nc2cc(C=CC(=O)NO)ccc21 |
| < 100 | COc1ncc(-c2nc(N3CCOCC3)c3sc(C(C)(C)Nc4ncc(C(=O)NO)cn4)cc3n2)cn1 |
| < 100 | CNc1ccc(-c2nc(N3CCOCC3)c3sc(CNCc4nc5cc(C=CC(=O)NO)ccc5n4C)cc3n2)cn1 |
| < 100 | CN(Cc1cc2nc(-c3cccc4[nH]c(=O)sc34)nc(N3CCOCC3)c2s1)c1ncc(C(=O)NO)cn1 |
| < 100 | CN(Cc1cc2nc(-c3cc(O)ccc3F)nc(N3CCOCC3)c2s1)c1ncc(C(=O)NO)cn1 |
| < 100 | CNc1ccc(-c2nc(N3CCOCC3)c3sc(NS(=O)(=O)c4cccc(C=CC(=O)NO)c4)cc3n2)cn1 |
| < 100 | CNc1ccc(-c2nc(N3CCOCC3)c3sc(C(C)N(C)c4ncc(C(=O)NO)cn4)cc3n2)cn1 (centres undefined) |
| < 100 | COc1ncc(-c2nc(N3CCOCC3)c3sc(NS(=O)(=O)c4cccc(C=CC(=O)NO)c4)cc3n2)cn1 |
| < 100 | COc1ccc(-c2nc(N3CCOCC3)c3sc(CN(CCO)c4ncc(C(=O)NO)cn4)cc3n2)cn1 |
| < 100 | CN(Cc1cc2nc(-c3ccc(N)c(F)c3)nc(N3CCOCC3)c2s1)c1ncc(C(=O)NO)cn1 |
| < 100 | Nc1ccc(-c2nc(N3CCOCC3)c3sc(CN(CCO)c4ncc(C(=O)NO)cn4)cc3n2)cn1 |
| < 100 | Nc1ncc(-c2nc(N3CCOCC3)c3sc(NS(=O)(=O)c4ccc(/C=C/C(=O)NO)cc4)cc3n2)cn1 |
| < 100 | CN(Cc1cc2nc(-c3ccc4[nH]c(C(F)(F)F)nc4c3)nc(N3CCOCC3)c2s1)c1ncc(C(=O)NO)cn1 |
| < 100 | CCCc1nc2cc(C=CC(=O)NO)ccc2n1CCNCc1cc2nc(-c3ccc(NC)nc3)nc(N3CCOCC3)c2s1 |
| < 100 | COc1ccc(-c2nc(N3CCOCC3)c3sc(NCCCCCC(=O)NO)cc3n2)cn1 |
| < 100 | CNc1ccc(-c2nc(N3CCOCC3)c3sc(C(C)(C)Nc4ncc(C(=O)NO)cn4)cc3n2)cn1 |
| < 100 | CN(Cc1cc2nc(-c3cccc(OCCO)c3)nc(N3CCOCC3)c2s1)c1ncc(C(=O)NO)cn1 |
| < 100 | COc1ccc(-c2nc(N3CCOCC3)c3sc(S(=O)(=O)Nc4ncc(C(=O)NO)cn4)cc3n2)cn1 |

| IC50 [nM] | Compound |
| --- | --- |
| < 100 | COc1ncc(-c2nc(N3CCOCC3)c3sc(C(C)N(C)c4ncc(C(=O)NO)cn4)cc3n2)cn1 (centres undefined) |
| < 100 | Nc1ncc(-c2nc(N3CCOCC3)c3sc(NCCCCC(=O)NO)cc3n2)cn1 |
| < 100 | CNc1ccc(-c2nc(N3CCOCC3)c3sc(CN(CCO)c4ncc(C(=O)NO)cn4)cc3n2)cn1 |
| < 100 | CCOc1ccc(-c2nc(N3CCOCC3)c3sc(CN(C)c4ncc(C(=O)NO)cn4)cc3n2)cn1 |
| < 100 | O=C(CCCCNc1cc2nc(-c3cc(O)ccc3F)nc(N3CCOCC3)c2s1)NO |
| < 100 | CNc1ncc(-c2nc(N3CCOCC3)c3sc(NCCCCC(=O)NO)cc3n2)cn1 |
| < 100 | COc1ccc(-c2nc(N3CCOCC3)c3sc(Nc4ncc(C(=O)NO)cn4)cc3n2)cn1 |
| < 100 | COc1ccc(-c2nc(N3CCOCC3)c3sc(NS(=O)(=O)c4cccc(/C=C/C(=O)NO)c4)cc3n2)cn1 |
| < 100 | Nc1ncc(-c2nc(N3CCOCC3)c3sc(NS(=O)(=O)c4cccc(/C=C/C(=O)NO)c4)cc3n2)cn1 |
| < 100 | Nc1ccc(-c2nc(N3CCOCC3)c3sc(S(=O)(=O)Nc4ncc(C(=O)NO)cn4)cc3n2)cc1 |
| < 100 | CN(Cc1cc2nc(-c3ccc(N)cc3Cl)nc(N3CCOCC3)c2s1)c1ncc(C(=O)NO)cn1 |
| < 100 | COc1ccc(-c2nc(N3CCOCC3)c3sc(C(C)N(C)c4ncc(C(=O)NO)cn4)cc3n2)cn1 (centres undefined) |
| < 100 | COc1ncc(-c2nc(N3CCOCC3)c3sc(NS(=O)(=O)c4ccc(C=CC(=O)NO)cc4)cc3n2)cn1 |
| < 100 | Nc1ccc(-c2nc(N3CCOCC3)c3sc(Nc4ncc(C(=O)NO)cn4)cc3n2)cc1 |
| < 100 | CNc1ccc(-c2nc(N3CCOCC3)c3sc(NS(=O)(=O)c4ccc(C=CC(=O)NO)cc4)cc3n2)cn1 |
| < 100 | CN(Cc1cc2nc(-c3ccc(OCCO)nc3)nc(N3CCOCC3)c2s1)c1ncc(C(=O)NO)cn1 |
| < 100 | CNc1ccc(-c2nc(N3CCOCC3)c3sc(N(C)c4ncc(C(=O)NO)cn4)cc3n2)cn1 |
| < 100 | CN(Cc1cc2nc(-c3ccc(N)c(CO)c3)nc(N3CCOCC3)c2s1)c1ncc(C(=O)NO)cn1 |
